What all share (assay): In vitro antibacterial activity on pathogenic bacteria for fish (agar MIC, Test Example 1)
Common to all, as to assay type: cell-based

Test [1] deals with Aeromonas hydrophila. The conditions noted are these: 20 h; for MIC: Aeromonas hydrophila; for MIC (minimum growth-inhibition concentration): Mueller-Hinton agar. The procedure:
(§1) In vitro antibacterial activity on pathogenic-bacteria for fish
(§2) Each of the test strains was cultured over-night, and each culture broth (containing about 10^6 cells/ml) was innoculated in Mueller-Hinton agar (DIFCO) supplied with 1.0-2.0% sodium chloride and containing the test compound at each specified concentration.

For test [2], the system named is Pasteurella piscicida. The conditions noted are these: 20 h; for MIC: Photobacterium damselae; for MIC (minimum growth-inhibition concentration): Mueller-Hinton agar. The protocol: as §1, §2
Test [3] has as its system Vibrio anguillarum. The conditions noted are these: 20 h, 25-30 °C; for MIC: Vibrio anguillarum, read-out: MIC (minimum growth-inhibition concentration); for MIC (minimum growth-inhibition concentration): Mueller-Hinton agar. The protocol:
as §1, §2

The mark [4] stands for this setting: Vibrio anguillarum strain NA8340, Mueller-Hinton agar.
The mark [5] stands for this setting: Vibrio anguillarum strain NA8341, Mueller-Hinton agar.
Setting [6] is: Vibrio anguillarum strain NA8346, Mueller-Hinton agar.
The mark [7] stands for this setting: Vibrio anguillarum strain NA8347, Mueller-Hinton agar.
Where [8] appears, read: Vibrio anguillarum strain NH8410, Mueller-Hinton agar.
The mark [9] stands for this setting: Aeromonas hydrophila strain C 44, 25-30 °C.
The mark [10] stands for this setting: Aeromonas hydrophila strain KA8301, 25-30 °C.
Setting [11] is: Aeromonas hydrophila strain KA8414, 25-30 °C.
Where [12] appears, read: Aeromonas hydrophila strain KA8416, 25-30 °C.
Setting [13] is: Aeromonas hydrophila strain M 183, 25-30 °C.
Where [14] appears, read: Pasteurella piscicida strain EH8304, 25-30 °C.
Where [15] appears, read: Pasteurella piscicida strain EH8309, 25-30 °C.
[16] abbreviates: Pasteurella piscicida strain EH8312, 25-30 °C.
The mark [17] stands for this setting: Pasteurella piscicida strain NG8319, 25-30 °C.
Where [18] appears, read: Vibrio anguillarum strain NA8340.
Setting [19] is: Vibrio anguillarum strain NA8341.
Where [20] appears, read: Vibrio anguillarum strain NA8346.
The mark [21] stands for this setting: Vibrio anguillarum strain NA8347.
[22] abbreviates: Vibrio anguillarum strain NH8410.
The mark [23] stands for this setting: Aeromonas hydrophila strain C 44, Mueller-Hinton agar, 25-30 °C, read-out: MIC (minimum growth-inhibition concentration).
[24] abbreviates: Aeromonas hydrophila strain KA8301, Mueller-Hinton agar, 25-30 °C, read-out: MIC (minimum growth-inhibition concentration).
The mark [25] stands for this setting: Aeromonas hydrophila strain KA8414, Mueller-Hinton agar, 25-30 °C, read-out: MIC (minimum growth-inhibition concentration).
The mark [26] stands for this setting: Aeromonas hydrophila strain KA8416, Mueller-Hinton agar, 25-30 °C, read-out: MIC (minimum growth-inhibition concentration).
[27] abbreviates: Aeromonas hydrophila strain M 183, Mueller-Hinton agar, 25-30 °C, read-out: MIC (minimum growth-inhibition concentration).
Where [28] appears, read: Pasteurella piscicida strain EH8304, Mueller-Hinton agar, 25-30 °C, read-out: MIC (minimum growth-inhibition concentration).
Setting [29] is: Pasteurella piscicida strain EH8309, Mueller-Hinton agar, 25-30 °C, read-out: MIC (minimum growth-inhibition concentration).
The mark [30] stands for this setting: Pasteurella piscicida strain EH8312, Mueller-Hinton agar, 25-30 °C, read-out: MIC (minimum growth-inhibition concentration).
Where [31] appears, read: Pasteurella piscicida strain EH8313, Mueller-Hinton agar, 25-30 °C, read-out: MIC (minimum growth-inhibition concentration).
Where [32] appears, read: Pasteurella piscicida strain NG8319, Mueller-Hinton agar, 25-30 °C, read-out: MIC (minimum growth-inhibition concentration).
The mark [33] stands for this setting: Pasteurella piscicida strain EH8313, 25-30 °C.

Molecules are shown by their SMILES. Values after ≈ are worked out from the molar mass of the structure shown. Counter-ions that a name gives are not always drawn. Like-named read-outs stand apart in the source and are kept apart here.

As for `O=C(O)c1cn(C2CC2)c2cc(N3CCNCC3)c(F)cc2c1=O` [Compound A, hydrochloride of 1-cyclopropyl-6-fluoro-1,4-dihydro-4-oxo-7-piperazino-quinoline-3-carboxylic acid], the MIC is less than 0.025 mg/L in test [1] (read-out: MIC (minimum growth-inhibition concentration), Aeromonas hydrophila strain C 44, Mueller-Hinton agar, 25-30 °C); less than 0.025 mg/L in test [1] (read-out: MIC (minimum growth-inhibition concentration), Aeromonas hydrophila strain KA8301, Mueller-Hinton agar, 25-30 °C); less than 0.025 mg/L in test [1] (read-out: MIC (minimum growth-inhibition concentration), Aeromonas hydrophila strain KA8414, Mueller-Hinton agar, 25-30 °C); less than 0.025 mg/L in test [1] (read-out: MIC (minimum growth-inhibition concentration), Aeromonas hydrophila strain KA8416, Mueller-Hinton agar, 25-30 °C); less than 0.025 mg/L in test [1] (read-out: MIC (minimum growth-inhibition concentration), Aeromonas hydrophila strain M 183, Mueller-Hinton agar, 25-30 °C); 0.05 mg/L in test [2] (read-out: MIC (minimum growth-inhibition concentration), Pasteurella piscicida strain EH8304, Mueller-Hinton agar, 25-30 °C). Further, the MIC in test [2] (read-out: MIC (minimum growth-inhibition concentration), Pasteurella piscicida strain EH8309, Mueller-Hinton agar, 25-30 °C) is less than 0.025 mg/L; in test [2] (read-out: MIC (minimum growth-inhibition concentration), Pasteurella piscicida strain EH8312, Mueller-Hinton agar, 25-30 °C), 0.05 mg/L; in test [2] (read-out: MIC (minimum growth-inhibition concentration), Pasteurella piscicida strain NG8319, Mueller-Hinton agar, 25-30 °C) it was less than 0.025 mg/L; in test [3] (setting [4]) it was less than 0.025 mg/L; in test [3] (setting [5]), less than 0.025 mg/L; in test [3] (setting [6]) it was less than 0.025 mg/L. Also, the MIC in test [3] (setting [7]) and in test [3] (setting [8]) was less than 0.025 mg/L in each case.

Turning to `O=C(O)c1cn(C2CC2)c2cc(N3CCNCC3)c(F)cc2c1=O` [Compound B, monohydrate of hydrochloride of 1-cyclopropyl-6-fluoro-1,4-dihydro-4-oxo-7-piperazino-quinoline-3-carboxylic acid], the “MIC (minimum growth-inhibition concentration)” value was less than 0.0125 mg/L in test [1] (setting [9]); less than 0.0125 mg/L in test [1] (setting [10]); less than 0.0125 mg/L in test [1] (setting [11]); less than 0.0125 mg/L in test [1] (setting [12]); less than 0.0125 mg/L in test [1] (setting [13]); 0.025 mg/L in test [2] (setting [14]). In addition, the “MIC (minimum growth-inhibition concentration)” value was less than 0.0125 mg/L in test [2] (setting [15]); 0.025 mg/L in test [2] (setting [16]); 0.025 mg/L in test [2] (setting [17]); 0.025 mg/L in test [3] (setting [18]); 0.025 mg/L in test [3] (setting [19]); 0.025 mg/L in test [3] (setting [20]). Also, the “MIC (minimum growth-inhibition concentration)” value in test [3] (setting [21]) and in test [3] (setting [22]) was 0.025 mg/L in each case. Further, the MIC in test [2] (read-out: MIC (minimum growth-inhibition concentration), Pasteurella piscicida strain EH8313, Mueller-Hinton agar, 25-30 °C) turned out to be 0.025 mg/L.

Turning to `CN1CCN(c2cc3c(cc2F)c(=O)c(C(=O)O)cn3C2CC2)CC1` [Compound C, hydrochloride of 1-cyclopropyl-6-fluoro-1,4-dihydro-4-oxo-7-(4-methylpiperazino)quinoline-3-carboxylic acid], the MIC in test [1] (setting [23]) was less than 0.025 mg/L; in test [1] (setting [24]), less than 0.025 mg/L; in test [1] (setting [25]), less than 0.025 mg/L; in test [1] (setting [26]), less than 0.025 mg/L; in test [1] (setting [27]) it was less than 0.025 mg/L; in test [2] (setting [28]), 0.05 mg/L. Further, the MIC was 0.05 mg/L in test [2] (setting [29]); 0.05 mg/L in test [2] (setting [30]); 0.05 mg/L in test [2] (setting [31]); 0.05 mg/L in test [2] (setting [32]); less than 0.025 mg/L in test [3] (setting [4]); less than 0.025 mg/L in test [3] (setting [5]). Also, the MIC in test [3] (setting [6]), in test [3] (setting [7]) and in test [3] (setting [8]) was less than 0.025 mg/L throughout.

For the compound `CCN1CCN(c2cc3c(cc2F)c(=O)c(C(=O)O)cn3C2CC2)CC1` [Compound E, dihydrate of hydrochloride of 1-cyclopropyl-6-fluoro-1,4-dihydro-4-oxo-7-(4-ethylpiperazino)-quinoline-3-carboxylic acid], the “MIC (minimum growth-inhibition concentration)” value in test [1] (setting [9]) was less than 0.025 mg/L; in test [1] (setting [10]) it was 0.05 mg/L; in test [1] (setting [11]), less than 0.025 mg/L; in test [1] (setting [12]), less than 0.025 mg/L; in test [1] (setting [13]), less than 0.025 mg/L; in test [2] (setting [14]), 0.05 mg/L. The “MIC (minimum growth-inhibition concentration)” value in test [2] (setting [15]), in test [2] (setting [16]), in test [2] (setting [33]), in test [2] (setting [17]), in test [3] (setting [18]) and in test [3] (setting [19]) was 0.05 mg/L in each case. Further, the “MIC (minimum growth-inhibition concentration)” value in test [3] (setting [20]), in test [3] (setting [21]) and in test [3] (setting [22]) was 0.05 mg/L each time.

As for `O=C(O)c1cn(C2CC2)c2cc(N3CCN(CCO)CC3)c(F)cc2c1=O` [Compound F, hydrochloride of 1-cyclopropyl-6-fluoro-1,4-dihydro-4-oxo-7-(4-β-hydroxyethyl-piperazino)-quinoline-3-carboxylic acid], the MIC is less than 0.025 mg/L in test [1] (setting [23]); 0.05 mg/L in test [1] (setting [24]); less than 0.025 mg/L in test [1] (setting [25]); less than 0.025 mg/L in test [1] (setting [26]); less than 0.025 mg/L in test [1] (setting [27]); 0.1 mg/L in test [2] (setting [28]). In addition, the MIC in test [2] (setting [29]), in test [2] (setting [30]), in test [2] (setting [31]), in test [2] (setting [32]), in test [3] (setting [4]) and in test [3] (setting [5]) was 0.1 mg/L throughout. Further, the MIC in test [3] (setting [6]) stood at 0.1 mg/L; in test [3] (setting [7]) it was 0.05 mg/L; in test [3] (setting [8]), 0.1 mg/L.

`CCN1CCN(c2cc3c(cc2F)c(=O)c(C(=O)O)cn3C2CC2)CC1` [Compound G, embonate of 1-cyclopropyl-6-fluoro-1,4-dihydro-4-oxo-7-(4-ethylpiperazino)-quinoline-3-carboxylic acid]: the “MIC (minimum growth-inhibition concentration)” value in test [1] (setting [9]) is 0.05 mg/L (≈ 0.139 µM); in test [1] (setting [10]) it was 0.05 mg/L (≈ 0.139 µM); in test [1] (setting [11]), 0.05 mg/L (≈ 0.139 µM); in test [1] (setting [12]), 0.05 mg/L (≈ 0.139 µM); in test [1] (setting [13]), 0.05 mg/L (≈ 0.139 µM); in test [2] (setting [14]), 0.1 mg/L (≈ 0.278 µM). Moreover, the “MIC (minimum growth-inhibition concentration)” value was found to be 0.1 mg/L (≈ 0.278 µM) in test [2] (setting [15]); 0.05 mg/L (≈ 0.139 µM) in test [2] (setting [16]); 0.05 mg/L (≈ 0.139 µM) in test [2] (setting [33]); 0.01 mg/L (≈ 0.0278 µM) in test [2] (setting [17]); 0.05 mg/L (≈ 0.139 µM) in test [3] (setting [18]); 0.05 mg/L (≈ 0.139 µM) in test [3] (setting [19]). Further, the “MIC (minimum growth-inhibition concentration)” value in test [3] (setting [20]), in test [3] (setting [21]) and in test [3] (setting [22]) was 0.05 mg/L (≈ 0.139 µM) each time.

Source of the values: patent US5281596A, “Antibacterial drugs for fish” (Bayer Aktiengesellschaft, priority 1986, dated 1994).
